experiment: Solubility in toluene; conditions: 20 mg mixed with toluene (1 mL)

| Solubility | Structure (SMILES) |
| --- | --- |
| A (Completely dissolved.) | CCCCCCCCCCCCc1cc2cc3ccc4cc5cc(CCCCCCCCCCCC)sc5cc4c3cc2s1 [Compound 5] |
| A (Completely dissolved.) | CCCCCCCCc1ccc(-c2cc3cc4ccc5cc6cc(-c7ccc(CCCCCCCC)cc7)sc6cc5c4cc3s2)cc1 [Compound 11] |
| A (Completely dissolved.) | CCCCCCCCc1ccc(-c2cc3cc4ccc5cc6cc(-c7ccc(CCCCCCCC)s7)sc6cc5c4cc3s2)s1 [Compound 16] |

| Structure (SMILES) | Solubility |
| --- | --- |
| CCCCCCCCc1cc2cc3ccc4cc5cc(CCCCCCCC)n(C)c5cc4c3cc2n1C [Compound 3] | A (Completely dissolved.) |
| CCCCCCCCc1csc(-c2cc3cc4ccc5cc6cc(-c7cc(CCCCCCCC)cs7)sc6cc5c4cc3s2)c1 [Compound 24] | A (Completely dissolved.) |

same assay, conditions: organic solvent or mixture, thermodynamic from solid

| Structure (SMILES) | Solubility [mg/mL] |
| --- | --- |
| Cc1c(C)n(-c2ccccc2)c2c1ccc1c3ccc4c(C)c(C)n(-c5ccccc5)c4c3ccc12 [compound 1, reference compound] | < 20 |
| c1ccc(-n2c3ccccc3c3cc4ccc5cc6c7ccccc7n(-c7ccccc7)c6cc5c4cc32)cc1 [compound 2, reference compound] | < 20 |

From patent US20160315271A1, “ORGANIC TRANSISTOR, COMPOUND, ORGANIC SEMICONDUCTOR MATERIAL FOR NON-LIGHT-EMITTING ORGANIC SEMICONDUCTOR DEVICE, MATERIAL FOR ORGANIC TRANSISTOR, COATING SOLUTION FOR NON-LIGHT-EMITTING ORGANIC SEMICONDUCTOR DEVICE, AND ORGANIC SEMICONDUCTOR FILM FOR NON-LIGHT-EMITTING ORGANIC SEMICONDUCTOR DEVICE” (FUJIFILM Corporation, priority 2014, published 2016)
